Data reported in ChEMBL document CHEMBL4266046, “β-Triketone-Monoterpene Hybrids from the Flowers of the Australian Tree Corymbia intermedia” (J Nat Prod, 2018).

Columns and labels:
Plasmodium falciparum [1] = assay: Antiplasmodial activity against synchronized ring stage of chloroquine-sensitive Plasmodium falciparum 3D7 infected in human erythrocytes assessed as inhibition of parasite replication after 72 hrs by DAPI staining based fluorescence imaging analysis; assay type: functional, organism-based; conditions: 3D7, 72 h
Plasmodium falciparum [2] = assay: Antiplasmodial activity against synchronized ring stage of chloroquine-sensitive Plasmodium falciparum 3D7 infected in human erythrocytes assessed as inhibition of parasite replication at higher concentration after 72 hrs by DAPI staining based fluorescence imaging analysis relative to control; assay type: functional
HEK293 = assay: (§1) Cytotoxicity against HEK293 cells assessed as inhibition of cell proliferation at 100 uM relative to control; assay type: cell-based; conditions: human, hek293, 100 µM
[3] = as §1; assay type: cell-based; conditions: human, HEK293 cells

IC50 (Plasmodium falciparum [1])	Compound	inhibition (INH) (Plasmodium falciparum [2])	Activity (HEK293)	inhibition at 100 µM [3]
20.8 µM	CC1(C)C(=O)C2=C(O[C@@]3(C)[C@H](C[C@@H]4C[C@H]3C4(C)C)[C@H]2c2ccccc2)C(C)(C)C1=O	100%	Non-Toxic	
12.5 µM	CC1(C)C(=O)C2=C(O[C@]3(CC[C@H]4C[C@@H]3C4(C)C)C[C@@H]2c2ccccc2)C(C)(C)C1=O			64%
9.9 µM	CC1(C)C(=O)C2=C(O[C@]3(CC[C@H]4C[C@@H]3C4(C)C)C[C@H]2c2ccccc2)C(C)(C)C1=O	100%		
